Test system: isolated stratum corneum
Assay: Moisturizing potential on isolated stratum corneum by measurement with a corneometer
Conditions: 5% by weight in 80%/20% water/n-propanol, 10 μL/cm2 on SC, 4 hours, 75% relative humidity, 25° C.
Protocol: A test was performed to evaluate the moisturizing potential of the extracts of the invention formulated in a vehicle (80%/20% water/n-propanol) in an amount of 5% by weight relative to the total weight of the composition. The technique makes it possible to measure the dielectric capacitance of the stratum corneum (SC), which depends on the mean dielectric permittivity value of the tissue. The dielectric permittivity varies greatly with the amount of water contained in the SC. The SC samples are conditioned at 75% relative humidity and at 25° C. before/during the measurements and the treatment. The capacitance measurement is performed using a CorneometerTM (Courage & Khazaka, Germany). […] Using at least two different batches of SC, four to five SC samples are measured per treatment. The variation in the corneometer signal (HCM) after treatment is calculated first for each SC sample: […]0). The mean of the DHCMi(vehicle) variations is then calculated for the control samples (treated with the vehicle): this mean value is subtracted from all the DHCMi(active agent) and DHCMi(positive control) variations to correct for the systematic bias. […]

Structure (SMILES): OCC(O)CO [Glycerol, glycerol]
- % norm (corneometer signal variation, vehicle-corrected, normalized to glycerol): 100%
